Read-outs that look alike come from different tables or passages of the source.
Tests used:
[1] = tested on: human lymphoblastoid TK6 cells; test: MultiFlow DNA Damage assay (γH2AX, p53, p-H3, polyploidy); type: cell-based; settings: for MultiFlow summary classification (call and MoA): TK6 cells, 4H and 24H sampling; for MultiFlow MoA classification: GEF-based call, in at least one S9 condition; for MultiFlow biomarkers with responses: fold-increase over solvent control
Description: Treated cells were gently resuspended and 25 µL/well was mixed thoroughly with the labeling solution. The plate was incubated for 30 min at room temperature shielded from light.
The γH2AX and p53 endpoints were measured based on their median fluorescence intensity (i.e., mean channel fluorescence or MCF) relative to the DMSO solvent control. The p-H3 and polyploidy endpoints were measured based on their frequencies among all events (i.e., all 2n–4n and polyploidy (8n) DNA content). The equations for calculating γH2AX shift, nuclear p53 shift, % polyploidy, and % p-H3 positive events are shown below.
Latex microspheres were used as counting beads to determine nuclear density.
Litron developed Global Evaluation Factors (GEF) to identify a biologically significant increase in select biomarker levels.
A clastogenic or aneugenic call required two successive concentrations that met or exceeded the GEFs in at least 2 of the 4 respective MoA biomarkers. Chemicals that met or exceeded two GEFs in a single non-cytotoxic concentration were designated as “weak” responses. In cases where both clastogen and aneugen biomarkers exceeded the GEF the MoA was considered pan-genotoxic. In cases where less than two biomarkers met the GEFs, the call was non-genotoxic.

[2] = tested on: human lymphoblastoid TK6 cells; test: In vitro MicroFlow assay (flow cytometry-based micronucleus test); settings: for MicroFlow summary classification (MN induction): TK6 cells, 4H exposure, 24-h sampling; for MicroFlow %MN response (text): positive: >2.5 fold-increase in %MN and p < 0.05 vs vehicle
[3] = tested on: human lymphoblastoid TK6 cells; test: TGx-DDI transcriptomic biomarker classification (TempO-Seq S1500+) and BMC modeling; settings: for TGx-DDI summary classification: TK6 cells, 4H exposure; for TGx-DDI classification: overall call from 2-DC, PCA, NSC-PA, S9 condition as in Figure 1; for TGx-DDI BMC potency ranking (bootstrapped median gene BMC): BMR 1 standard deviation, compounds with concordant positive calls; for Strength / consistency of TGx-DDI response (text): across concentrations and the three statistical analyses
[4] = tested on: human lymphoblastoid TK6 cells; test: Viability assessment (propidium iodide fluorescence, flow cytometry); settings: TK6 cells, ± S9, quantified at 24 h via propidium iodide
[5] = tested on: human lymphoblastoid TK6 cells; test: Integrated NAM-based test strategy (TGx-DDI + MicroFlow + MultiFlow; ToxPi integration of BMCs); settings: for ToxPi profile of multiplexed endpoint BMCs: six endpoints: TGx-DDI, MN, 4H/24H p53, 4H/24H ɣH2AX; for Integrated hazard conclusion: from TGx-DDI, MicroFlow and MultiFlow calls
[6] = tested on: structural chromosomal aberrations; settings: cited from earlier work; for In vitro mammalian chromosomal aberration test result (OECD 473): SCCS
%MN = tested on: %MN; design: method as in SCCP, 2006; settings: ref SCCP, 2006, cited from earlier work
MN = settings: cited from earlier work
[7] = +S9 (rat liver S9), 3 h recovery

Compound | TGx-DDI summary classification [3, 7] | TGx-DDI summary classification ([3]; -S9) | TGx-DDI classification [3] | Strength / consistency of TGx-DDI response (text) [3] | MultiFlow summary classification (call and MoA) ([1]; +S9) | MultiFlow summary classification (call and MoA) ([1]; -S9) | MicroFlow summary classification (MN induction) ([2]; -S9) | MicroFlow %MN response (text) [2] | MicroFlow summary classification (MN induction) ([2]; +S9) | Integrated hazard conclusion [5] | MultiFlow MoA classification [1] | MultiFlow biomarkers with responses [1] | further results
OC[C@@H](O)[C@@H](O)[C@H](O)[C@H](O)CO [DMANN, D-mannitol, reference compound] | - | - | non-DDI |  | - | - | - | not observed |  |  |  |  | Effect on cell viability [4]: no decrease in viability
COc1cc([C@@H]2c3cc4c(cc3[C@@H](O[C@@H]3O[C@@H]5CO[C@@H](C)O[C@H]5[C@H](O)[C@H]3O)[C@H]3COC(=O)[C@H]23)OCO4)cc(OC)c1O [EPEG, Etoposide, reference compound] |  | + | DDI |  | + C | + C | + | significant fold-increases in %MN | + |  |  |  | ToxPi profile of multiplexed endpoint BMCs [5]: most potent for five of the six endpoints examined; TGx-DDI BMC potency ranking (bootstrapped median gene BMC) [3]: lowest median gene BMC
Cc1ccc(O)c(N)c1 [NSACB 2, 2-amino-4-methylphenol] | + |  | DDI | weaker DDI responses | + C | - | + | variable responses with a significant increase observed only at the highest concentration | + | genotoxic in vitro, causing DNA damage via a clastogenic MoA | clastogens | 4H ɣH2AX and 24H p53 | Strength of MultiFlow biomarker response (text) [1]: most robust increases
Cc1cc(C)n(CO)n1 [NSACB 3, 3,5-dimethylpyrazole-1-methanol] | + |  | DDI | weaker DDI responses | + C | + C | + | variable responses with a significant increase observed only at the highest concentration | + | genotoxic in vitro, causing DNA damage via a clastogenic MoA | clastogens | 4H p53 and 4H ɣH2AX | Strength of MultiFlow biomarker response (text) [1]: more moderate responses
CCN(CC)c1cccc(O)c1 [NSACB 4, 3-diethylaminophenol] | + |  | DDI | weaker DDI responses | + C/A | + C |  |  |  | genotoxic in vitro, causing DNA damage via a clastogenic MoA | pan-genotoxicant | clastogen biomarkers 4H p53 and 4H ɣH2AX, as well as aneugen marker 4H p-H3 and pan-genotoxic biomarker 24H p53 | 
COc1ccc(NCCO)cc1N [NSACB 7, 2-[(3-amino-4-methoxyphenyl)amino]ethanol] | + | + | DDI across all concentrations except the lowest | strongest responses | + C | + C | + |  | + | genotoxic in vitro, causing DNA damage via a clastogenic MoA | clastogens | 4H p53 and 4H ɣH2AX | In vitro micronucleus result (OECD 487) (%MN; with S9): statistically significant and biologically relevant increase in the frequency of %MN; In vitro micronucleus result (OECD 487) (%MN; without S9): equivocal; Strength of MultiFlow biomarker response (text) [1]: more moderate responses; MicroFlow %MN response (text) ([2]; listed as 7): robust fold-increase in %MN with a clear concentration-response relationship; MicroFlow %MN response (text) ([2]; listed as NSACB #7): stronger %MN frequency in the +S9 condition at the highest concentration
CCCOCC(C)OCC(C)O (stereo not shown) [NSACB 10, 1-(1-methyl-2-propoxyethoxy)-2-propanol] |  |  |  |  |  |  |  |  |  | likely irrelevant positives in the MN test |  |  | Effect on cell viability [4]: did not impact viability up to the highest concentration of 10 mM
C/C=C(/C)C(=O)O[C@H]1C(C)=C2[C@H]([C@@H]1OC(=O)CCCCCCC)[C@@](C)(OC(C)=O)C[C@H](OC(=O)CCC)[C@@]1(O)[C@H]2OC(=O)[C@@]1(C)O [thapsigargin] |  |  |  |  |  |  |  |  |  |  |  |  | MicroFlow MN result (MN): induce MN

Now from value to molecule, other results behind:

TGx-DDI summary classification [3, 7] | TGx-DDI summary classification ([3]; -S9) | TGx-DDI classification [3] | Strength / consistency of TGx-DDI response (text) [3] | Compound | MultiFlow summary classification (call and MoA) ([1]; +S9) | MultiFlow summary classification (call and MoA) ([1]; -S9) | MicroFlow summary classification (MN induction) ([2]; -S9) | MicroFlow %MN response (text) [2] | MicroFlow summary classification (MN induction) ([2]; +S9) | Integrated hazard conclusion [5] | MultiFlow MoA classification [1] | MultiFlow biomarkers with responses [1] | further results
+ |  | DDI across all concentrations | strongest responses | Nc1cccc(N)n1 [NSACB 5, 2,6-diaminopyridine] | + C | + C | + | robust fold-increase in %MN with a clear concentration-response relationship | + | genotoxic in vitro, causing DNA damage via a clastogenic MoA | clastogens | 4H p53 and 4H ɣH2AX | ToxPi profile of multiplexed endpoint BMCs [5]: almost no slices protruding from the center; Strength of MultiFlow biomarker response (text) ([1]; listed as 5): most robust increases; Strength of MultiFlow biomarker response (text) ([1]; listed as NSACB #5): strong response in clastogen-related biomarkers in both S9 conditions; TGx-DDI BMC potency ranking (bootstrapped median gene BMC) [3]: greatest median gene BMC; Chromosomal aberration test result ([6]; continuous treatment (24H) without S9, ref SCCS, 2013): clastogenic; In vitro mammalian chromosomal aberration test result (OECD 473) ([6]; ref SCCP, 2007, 2013): positive; Chromosomal aberration test result ([6]; short-term (6H) treatment with S9, ref SCCS, 2013): clastogenic
- |  | non-DDI |  | COc1cc([N+](=O)[O-])ccc1O [NSACB 6, 2-methoxy-4-nitrophenol] | - | - | + | robust fold-increase in %MN with a clear concentration-response relationship | + | likely irrelevant positives in the MN test | non-genotoxic | moderate to robust response increase in one of the aneugenic biomarkers (i.e., 4H p-H3) | 
+ | + |  | moderate DDI response | O=[N+]([O-])c1cc(O)ccc1NCCCO [NSACB 9, 4-[(3-hydroxypropyl)amino]-3-nitrophenol] | + C | + C | + | robust fold-increase in %MN with a clear concentration-response relationship | + | genotoxic in vitro, causing DNA damage via a clastogenic MoA | clastogens | 4H and 24H ɣH2AX | Strength of MultiFlow biomarker response (text) ([1]; listed as 9): most robust increases; Strength of MultiFlow biomarker response (text) ([1]; listed as NSACB #9): strong fold-increases in clastogenic biomarkers (i.e., 4H and 24H ɣH2AX) in both S9 conditions; Chromosomal aberration test result ([6]; in the presence of S9, ref SCCP, 2007): induced structural chromosomal aberrations; In vitro mammalian chromosomal aberration test result (OECD 473) ([6]; ref SCCP, 2007, 2013): positive; Chromosomal aberration test result ([6]; without S9, ref SCCP, 2007): equivocal
